Article PMC5653977 (EMBO Molecular Medicine, 2017)
Where a name gives a salt, the structure may show the parent alone. *1 amine or outer side, *2 acyl side, *3 side chain or, on linkers, in order; H or OH if unused. Where a SMILES comes first, the peptide text is derived from it. Bridges are numbered along the chain shown (N, C = ends). Roman numbers before positions name the chains, in order. [ ]: non-standard residue; d: D form. Actinocin(9to1) = Cc1c2oc3c(C)ccc(C(=O)[*:1])c3nc-2c(C(=O)[*:2])c(N)c1=O; pGlu = O=C1CC[C@@H](C(=O)O)N1; NMeV = CN[C@H](C(=O)O)C(C)C; Thz = O=C(O)[C@@H]1CSCN1; Sar = CNCC(=O)O

System: NRG1-ERBB4 signaling
Assay: Nrg1-ERBB4-PIK3R1 split TEV co-culture compound screen of the NIH Clinical Collection
Type: cell-based, human
Settings: not given

Row | SMILES | Z-SCORE
1 | CN1C(=O)CN=C(c2ccccc2)c2cc(Cl)ccc21 [Diazepam] | -1.79

Same assay, conditions: NIH Clinical Collection NCC-003 raw data; compounds ranked by Z-score; 'flagged' given instead of a Z-score

Row | SMILES | Z-SCORE
2 | COc1ccc(/C=C/C(=O)Nc2ccccc2C(=O)O)cc1OC | -1.17
3 | CC12CC3CC(C)(C1)CC(N)(C3)C2 [Memantine hydrochloride, reference compound] | -1.15
4 | O=C1CC[C@@H](C(=O)N2CSC[C@H]2C(=O)O)N1 [PIDOTIMOD] ([pGlu]-[Thz]-OH) | -1.2
5 | O=C1CCc2ccc(OCCCCN3CCN(c4cccc(Cl)c4Cl)CC3)cc2N1 [ARIPIPRAZOLE] | -1.84
6 | OCc1cccnc1 [3-PYRIDINEMETHANOL] | -1.1
7 | Cc1c2oc3c(C)ccc(C(=O)N[C@@H]4C(=O)N[C@H](C(C)C)C(=O)N5CCC[C@H]5C(=O)N(C)CC(=O)N(C)[C@@H](C(C)C)C(=O)O[C@@H]4C)c3nc-2c(C(=O)N[C@@H]2C(=O)N[C@H](C(C)C)C(=O)N3CCC[C@H]3C(=O)N(C)CC(=O)N(C)[C@@H](C(C)C)C(=O)O[C@@H]2C)c(N)c1=O [DACTINOMYCIN] (I: T[dV]P[Sar][NMeV] / II: T[dV]P[Sar][NMeV]; ester I:1-I:C, II:1-II:C; linker I:N-II:N via Actinocin(9to1)) | flagged
8 | Cc1nnc2n1-c1ccc(Cl)cc1C(c1ccccc1)=NC2 [Alprazolam] | -2.27
9 | COC(=O)C[C@](O)(CCCC(C)(C)O)C(=O)O[C@@H]1C(OC)=C[C@]23CCCN2CCc2cc4c(cc2[C@H]13)OCO4 [HOMOHARRINGTONINE] | flagged

Same assay, conditions: compound screen of the NIH Clinical Collection, sheet raw data NCC-003; compounds ranked by Z-score

Row | SMILES | Z-SCORE
10 | Nc1nc2c(ncn2CCC(CO)CO)c(=O)[nH]1 [PENCICLOVIR] | -0.01
11 | CC(Cc1ccccc1)(NC(=O)CN)c1ccccc1 (racemic) | 0.97
12 | C[C@@H]1O[C@@H](OC[C@H]2O[C@@H](Oc3c(-c4ccc(O)c(O)c4)oc4cc(O)cc(O)c4c3=O)[C@H](O)[C@@H](O)[C@@H]2O)[C@H](O)[C@H](O)[C@H]1O [RUTIN] | 0.13
13 | CN(C)CCOC(c1ccccc1)c1ccccc1 [DIPHENHYDRAMINE HYDROCHLORIDE] | 1.01
14 | CCN1CC(CCN2CCOCC2)C(c2ccccc2)(c2ccccc2)C1=O.Cl (centres unmarked) [DOXAPRAM HYDROCHLORIDE] | -0.46
15 | CC[C@H]1OC(=O)[C@H](C)C(=O)[C@H](C)[C@@H](O[C@@H]2O[C@H](C)C[C@H](N(C)C)[C@H]2O)[C@](C)(OC)C[C@@H](C)C(=O)[C@H](C)[C@H]2N(CCCCn3cnc(-c4cccnc4)c3)C(=O)O[C@]12C [Telithromycin, reference compound] | 3.13
16 | N[C@@H]1CON=C1O [D-CYCLOSERINE, reference compound] | 2.86
17 | C[N+]1(CCC(C(N)=O)(c2ccccc2)c2ccccc2)CCCCC1 [FENPIVERINIUM BROMIDE] | -0.58
18 | CN1CCN(c2nc3cc(C(F)(F)F)ccc3n3cccc23)CC1.O=C(O)/C=C\C(=O)O.O=C(O)/C=C\C(=O)O [CGS 12066B] | 0.3
19 | COc1cc2c(cc1OC)[C@@]13CCN4CC5=CCO[C@H]6CC(=O)N2[C@H]1[C@H]6[C@H]5C[C@H]43 [Brucine] | 0.21
20 | C=CC1=C(C(=O)O)N2C(=O)[C@@H](NC(=O)/C(=N\O)c3csc(N)n3)[C@H]2SC1 | 0.68
21 | C[C@@H]1C[C@H]2[C@@H]3CCC4=CC(=O)C=C[C@]4(C)[C@@]3(F)[C@@H](O)C[C@]2(C)[C@H]1C(=O)CO [DESOXIMETASONE] | -0.5
22 | CCCCC(=O)N(Cc1ccc(-c2ccccc2-c2nnn[nH]2)cc1)[C@H](C(=O)O)C(C)C | -0.23
23 | c1cnc(N2CCN(Cc3ccc4c(c3)OCO4)CC2)nc1 [Piribedil] | 1.22
24 | CC[N+](C)(CC)CCOC(=O)C(O)(c1ccccc1)C1CCCCC1 (centres unmarked) [OXYPHENONIUM BROMIDE] | -0.45
25 | CO[C@@H]1[C@@H](O[C@@H]2O[C@H](C)[C@@H](O[C@H]3C[C@@](C)(O)[C@@H](OC(=O)CC(C)C)[C@H](C)O3)[C@H](N(C)C)[C@H]2O)[C@@H](CC=O)C[C@@H](C)[C@@H](O)/C=C/C=C/C[C@@H](C)OC(=O)C[C@H]1O [KITASAMYCIN] | 1.6

Row | SMILES | Z-SCORE
26 | O=c1[nH]c(=O)n(C2CCCO2)cc1F (centres unmarked) [FTORAFUR] | -0.09
27 | CNNCc1ccc(C(=O)NC(C)C)cc1 [PROCARBAZINE HYDROCHLORIDE] | 0.52
28 | COc1cc(C)c(Cc2cnc(N)nc2N)cc1OC [ORMETOPRIM] | 1.63
29 | Cc1c(O)cccc1C(=O)N[C@@H](CSc1ccccc1)[C@H](O)CN1C[C@H]2CCCC[C@H]2C[C@H]1C(=O)NC(C)(C)C [NELFINAVIR MESYLATE] | 0.24
30 | O=C(c1ccc(F)cc1)C1CCN(CCn2c(=S)[nH]c3ccccc3c2=O)CC1 [Altanserin] | 0.71
31 | CN1CCN(CCCN2c3ccccc3Sc3ccc(Cl)cc32)CC1 | -0.47
32 | C[C@]12Cc3c[nH]nc3C[C@@H]1CC[C@@H]1[C@@H]2CC[C@@]2(C)[C@H]1CC[C@]2(C)O [Stanozolol] | 0.07
33 | CC(C)NCC(O)COc1ccc(CCOCC2CC2)cc1 (centres unmarked) [Betaxolol hydrochloride] | 1.56
34 | COc1cc2nc(N(C)CCCNC(=O)C3CCCO3)nc(N)c2cc1OC (centres unmarked) [ALFUZOSIN] | 0.03
35 | C[C@H]1COc2c(N3CCN(C)CC3)c(F)cc3c(=O)c(C(=O)O)cn1c23 [LEVOFLOXACIN] | -0.28
36 | Cc1[nH]c(=O)c(C#N)cc1-c1ccncc1 [MILRINONE] | -0.04
37 | CN1C(=O)COc2c(C(=O)NC3CN4CCC3CC4)cc(Cl)cc21 (centres unmarked) [Azasetron] | 0.46
38 | OC[C@H]1O[C@@H](n2cnc3c(N[C@H]4CCC[C@@H]4O)ncnc32)[C@H](O)[C@@H]1O | -0.71
39 | C[C@H]1COc2c(C3(N)CC3)c(F)cc3c(=O)c(C(=O)O)cn1c23 [PAZUFLOXACIN] | -0.48
40 | CC[C@H](C)C(=O)O[C@H]1C[C@H](O)C=C2C=C[C@H](C)[C@H](CC[C@@H](O)C[C@@H](O)CC(=O)O)[C@H]21 [PRAVASTATIN Sodium] | -0.44

Same assay, conditions: compounds at 10 μM, 24 h; PC12 split TEV assay cells co-cultured with Nrg1-expressing PC12 cells; analysed with cellHTS2

Row | SMILES | Z-SCORE
41 | O=C1C(CC[S+]([O-])c2ccccc2)C(=O)N(c2ccccc2)N1c1ccccc1 (centres unmarked) [Sulfinpyrazone, reference compound] | 0.99
42 | CC(C)(S)C(N)C(=O)O (racemic) [DL-PENICILLAMINE, reference compound] | 2.02
43 | Cc1onc(-c2c(Cl)cccc2Cl)c1C(=O)N[C@@H]1C(=O)N2[C@@H]1SC(C)(C)[C@@H]2C(=O)O [DICLOXACILLIN SODIUM, reference compound] | 0.28
44 | CC[C@H]1OC(=O)[C@H](C)C(=O)[C@H](C)[C@@H](O[C@@H]2O[C@H](C)C[C@H](N(C)C)[C@H]2O)[C@](C)(OC)C[C@@H](C)C(=O)[C@H](C)[C@H]2N(CCCCn3cnc(-c4cccnc4)c3)C(=O)O[C@]12C [Telithromycin, reference compound] | 3.13
45 | CCOC(=O)CCC(=O)O[C@H]1[C@H](O[C@@H]2[C@@H](C)[C@H](O[C@H]3C[C@@](C)(OC)[C@@H](O)[C@H](C)O3)[C@@H](C)C(=O)O[C@H](CC)[C@@](C)(O)[C@H](O)[C@@H](C)C(=O)[C@H](C)C[C@@]2(C)O)O[C@H](C)C[C@@H]1N(C)C [Eryped, reference compound] | -0.38
46 | N[C@@H]1CON=C1O [D-CYCLOSERINE, reference compound] | -0.66
47 | CC(C)[N+](C)(CCOC(=O)C1c2ccccc2Oc2ccccc21)C(C)C [Pro-Banthine, reference compound] | -0.77
48 | NC(=O)c1ncn([C@@H]2O[C@H](CO)[C@@H](O)[C@H]2O)n1 [Ribavirin, reference compound] | 0.53
49 | NS(=O)(=O)c1cc(C2(O)NC(=O)c3ccccc32)ccc1Cl (centres unmarked) [Chlorthalidone, reference compound] | 0.87
50 | Oc1c(Cl)cc(Cl)c2cccnc12 [Chloroxine, reference compound] | flagged
51 | CC12CC3CC(C)(C1)CC(N)(C3)C2 [Memantine hydrochloride, reference compound] | 0.5
52 | C#C[C@]1(O)CC[C@H]2[C@@H]3CCC4=CC(=O)CC[C@@H]4[C@H]3CC[C@@]21C [19-Norethindrone, reference compound] | 0.63
53 | CCC(=O)O[C@]1(C(=O)CCl)[C@@H](C)C[C@H]2[C@@H]3CCC4=CC(=O)C=C[C@]4(C)[C@@]3(F)[C@@H](O)C[C@@]21C [CLOBETASOL PROPIONATE, reference compound] | -2.64
54 | Nc1nc(N)c2nc(-c3ccccc3)c(N)nc2n1 [Triamterene, reference compound] | 0.78
55 | CCc1nc(N)nc(N)c1-c1ccc(Cl)cc1 [Pyrimethamine, reference compound] | 0.29
56 | CC[N+](C)(C)c1cccc(O)c1 [EDROPHONIUM CHLORIDE, reference compound] | -1.53
57 | CC(=O)NS(=O)(=O)c1ccc(N)cc1 [Sulfacetamide, reference compound] | 0.29
58 | CN(C)[C@@H]1C(O)=C(C(N)=O)C(=O)[C@@]2(O)C(O)=C3C(=O)c4c(O)cccc4[C@@](C)(O)[C@H]3[C@H](O)[C@@H]12 [Oxytetracycline hydrochloride, reference compound] | 0.67
59 | CC[C@@H](CO)NCCN[C@@H](CC)CO [Ethambutol, reference compound] | -0.12
60 | CCCNCC(O)COc1ccccc1C(=O)CCc1ccccc1 (centres unmarked) [Rythmol, reference compound] | 0.2
61 | O=C1c2c(O)ccc(O)c2C(=O)c2c(NCCNCCO)ccc(NCCNCCO)c21 [MITOXANTRONE, reference compound] | flagged
62 | Brc1c(NC2=NCCN2)ccc2nccnc12 [Brimonidine, reference compound] | 0.01
63 | C#C[C@]1(O)CC[C@H]2[C@@H]3CCC4=Cc5oncc5C[C@]4(C)[C@H]3CC[C@@]21C [DANAZOL, reference compound] | -0.3
64 | CC(C)[N+]1(C)[C@@H]2CC[C@H]1C[C@@H](OC(=O)C(CO)c1ccccc1)C2.O.[Br-] (some centres unmarked) [IPRATROPIUM BROMIDE MONOHYDRATE, reference compound] | 0.31
65 | CN1CCC[C@H]1c1cccnc1 [NICOTINE, reference compound] | -0.12
66 | COc1cc(C)c(/C=C/C(C)=C/C=C/C(C)=C/C(=O)O)c(C)c1C [Acitretin, reference compound] | -0.6
67 | Cc1onc(-c2ccccc2)c1C(=O)N[C@@H]1C(=O)N2[C@@H]1SC(C)(C)[C@@H]2C(=O)[O-].O.[Na+] [Micropenin, reference compound] | 0.25
68 | Cc1cccc(Nc2ccccc2C(=O)O)c1C [Mefenamic Acid, reference compound] | 0.34
